From patent EP0043971A1, “Indanoneoxyalkylpiperazine derivatives, the preparation thereof and pharmaceutical compositions containing the same” (priority 1980, dated 1982)
Like-named read-outs stand apart in the source and are kept apart here.

Experiments:
[1] = test system: narkotisierten Ratten (Stamm: Spraque Dawley); assay: Hypotensive effect: blood pressure lowering in urethane-anaesthetised rats; assay type: in vivo, Ratte; details: for Blutdrucksenkung ED 20 % R.W. (Relative Wirksamkeit; Chlorpromazin = 1,00) / Blutdrucksenkung ED 20 % R.W. (Relative Wirksamkeit: Chlorpromazin = 1,00): i.v.; for ED20: Rattus norvegicus, iv, read-out: Blutdrucksenkung ED 20 %; for Q (ED 50 % Motilitätshemmung / ED 20 % Blutdrucksenkung): ratio of mouse p.o. ED 50 % to rat i.v. ED 20 %; for hypotensiv wirksame Dosen, -mal größer als die der Referenzsubstanz: rat i.v.
Description: (§1) Sie eignen sich mit bevorzugter sedativ/transquilisierender und anti-monaminerger Wirkung als Sedativa/Hypnotika oder als Tranquilizer bzw. Neuroleptica. Andere erfindungsgemäße Verbindungen eignen sich wegen ihrer relativ selektiven blutdrucksenkenden Wirksamkeit zur Behandlung der Hypertonie und zur Entlastung des Herzen bei Herzinsuffizienz. ) Zum Nachweis der pharmakologischen Wirkungen wurden folgende Methoden verwendet: • 1. Sedative Wirkung • 4-8 Gruppen von jeweils 3 weiblichen NMRI-Mäusen erhalten die Substanz oral appliziert. Die photoelektrische Bestimmung der durch eine neue Umgebung induzierten Orientierungshypermotilität erfolgt 30 min nach der Applikation der Substanzen für eine Dauer von 30 min. • Als ED 50 wird die Dosis bestimmt, welche im Vergleich zu Placebo-behandelten Kontrolltieren eine Abnahme der Orientierungshypermotilität um 50 % bewirkt. • 2. Anti-Methamphetamin-Wirkung • Methamphetamin-HCl (2,5 mg/kg i.v.) ruft an Ratten regelmäßig folgende Symptome hervor: motorische Unruhe, Such- und Schnüffelbewegungen, Fellsträuben sowie Tremor (Janssen et al., Arzeim. Forsch./Drug Res. 13, 205, 1963, RANDRUP et al., Psychopharmacologia 11, 300, 1967). • Die Prüfsubstanzen werden 30 min vor Methamphetamin intraperitoneal verabfolgt. Kriterium für einen Substanzeffekt ist das Ausbleiben der Schnüffelbewegungen innerhalb eines 5-minütigen Beobachtungszeitraums nach Methamphetamin-Injektion. • Als mittlere Hemmdosis (ED 50) wird mittels Probitanalyse die Dosis ermittelt, die das Symptom bei der Hälfte der Tiere verhindert. • 3. Hypotensive Wirkung • Die blutdrucksenkende Wirkung wurde an narkotisierten Ratten (Stamm: Spraque Dawley, Gewicht: 230-280 g) in Urethan-Narkose (1,78 g/kg i.p.) nachgewiesen. Der Blutdruck wurde in der Aorta carotis gemessen. Die Substanzapplikation erfolgte in eine Vena jugularis (wäßrige Lösung, 1 ml/kg). Als ED 20 % wurden aus der linearen Regression zwischen log Dosis (mg/kg) und relativer Blutdrucksenkung (Δ%) die Dosen ermittelt, welche eine 20 %ige Blutdrucksenkung bewirken.

weiblichen NMRI-Mäusen = assay: Sedative effect: inhibition of orientation hypermotility induced by a new environment, photoelectric measurement; assay type: in vivo, Maus; details: for ED50: Mus musculus, po, 0.5 h, Maus, read-out: Motilitätshemmung ED 50 %; for sedative Wirkung: result in words; for Wirkungsstärke (sedativ) der Referenzsubstanz / Motilitätshemmung um 50 %: -mal größere Dosen als Referenzsubstanz: relative to Chlorpromazin; for Wirkungsstärke (sedativ) der Referenzsubstanz: mouse p.o.
Description: as §1

[2] = Table 1, Ratte, Urethan-Narkose
[3] = Table 1, Applikation: per. os., measured 30 min after application for 30 min
[4] = Table 2, Ratte, Urethan-Narkose, Applikation: i.v.
[5] = Table 2, Ratte, Urethan-Narkose
[6] = Table 1, Ratte, Urethan-Narkose, Applikation: i.v.

| Compound | ED50 (weiblichen NMRI-Mäusen; [3]) [mg/kg] | sedative Wirkung (weiblichen NMRI-Mäusen) | ED20 [1, 4] [mg/kg] | Blutdrucksenkung ED 20 % R.W. (Relative Wirksamkeit: Chlorpromazin = 1,00) [1, 5] | Q (ED 50 % Motilitätshemmung / ED 20 % Blutdrucksenkung) ([1]; Table 2) | ED50 (weiblichen NMRI-Mäusen; Table 2, Applikation: per os.) [mg/kg] | further results |
| --- | --- | --- | --- | --- | --- | --- | --- |
| O=C1CCc2c(OCCCN3CCN(c4ccc(F)cc4)CC3)cccc21 [Beispiel 4, 4-(3-[4-(4-Fluorphenyl)-1-piperazinyl]-propoxy)-indan-1-on] | 3.56 | sedativ wirken |  |  |  |  | Blutdrucksenkung ED 20 % R.W. (Relative Wirksamkeit; Chlorpromazin = 1,00) [1, 2]: 0,14 |
| COc1ccccc1N1CCN(CC(O)COc2ccc3c(c2)CCC3=O)CC1 (racemic) [Beispiel 17] |  |  | 0.0722 | 0,36 | 183 | 13.2 | Quotienten aus den effektiven Dosen für die Motilitätshemmung (ED 50 %) und Blutdrucksenkung (ED 20 %) [1]: 183 |
| COc1cccc(N2CCN(CC(O)COc3cccc4c3CCC4=O)CC2)c1 (racemic) [Beispiel 14, 4-(3-[4-(3-Methoxyphenyl)-1-pipera-zinyl]-2-hydroxy-propoxy)-indanon-1] | 9.44 | sedativ wirken |  |  |  |  | ED20 [1, 6]: 1 mg/kg; Wirkungsstärke (sedativ) der Referenzsubstanz (weiblichen NMRI-Mäusen): 22% |
| COc1ccc(N2CCN(CC(O)COc3ccc4c(c3)CCC4=O)CC2)cc1 (racemic) [Beispiel 19, 5-(3-[4-(4-Methoxyphenyl)-1-piperazi-nyl]-2-hydroxy-propoxy)-indanon-1] | 5.76 | sedativ wirken |  |  |  |  | ED20 [1, 6]: 7.91 mg/kg; hypotensiv wirksame Dosen, -mal größer als die der Referenzsubstanz ([1]; relative to Chlorpromazin): 300 mal |
| O=C1CCc2c(OCC(O)CN3CCN(c4ccc(F)cc4)CC3)cccc21 (racemic) [Beispiel 1, 4-(3-[4-(4-Fluorphenyl)-1-piperazinyl]-2-hydroxy-propoxy)--indanon-1] | 3.05 | sedativ wirken |  |  |  |  | ED20 [1, 6]: 1.07 mg/kg; Wirkungsstärke (sedativ) der Referenzsubstanz (weiblichen NMRI-Mäusen): 69% |
| COc1ccccc1N1CCN(CC(O)COc2cccc3c2C(=O)CC3)CC1 (racemic) [Beispiel 23, 7-(3-[4-(2-Methoxyphenyl)-1-piperazi-nyl]-2-hydroxy-propoxy)-indanon-1] |  |  | 0.057 | 0,46 | 333 | 19 |  |
| O=C1CCc2cccc(OCCCN3CCN(c4ccc(F)cc4)CC3)c21 [Beispiel 30, 7-(3-[4-(4-Fluorphenyl)-1-piperazinyl]--propoxy)-indanon-1] | 5.03 | sedativ wirken |  |  |  |  | Blutdrucksenkung ED 20 % R.W. (Relative Wirksamkeit; Chlorpromazin = 1,00) [1, 2]: 0,16; hypotensiv wirksame Dosen, -mal größer als die der Referenzsubstanz ([1]; relative to Chlorpromazin): 6 mal |
| Cc1ccccc1N1CCN(CC(O)COc2cccc3c2CCC3=O)CC1 (racemic) [Beispiel 10, 4-(3-[4-(2-Methylphenyl)-1-pipera-zinyl]-2-hydroxy-propoxy)-indanon-1] |  |  |  | 0,16 | 294 | 46.4 | Wirksamkeit nach den blutdrucksenkenden Dosen (ED 20 %) von Chlorpromazin ([1]; relative to Chlorpromazin): 16%; Motilitätshemmung um 50 %: -mal größere Dosen als Referenzsubstanz (weiblichen NMRI-Mäusen): 20 mal |
| CN(C)CCCN1c2ccccc2Sc2ccc(Cl)cc21 [Chlorpromazin, reference compound] | 2.11 |  |  | 1,00 | 81 |  | Quotienten aus den effektiven Dosen für die Motilitätshemmung (ED 50 %) und Blutdrucksenkung (ED 20 %) [1]: 81; ED20 [1]: 0.026 mg/kg; Blutdrucksenkung ED 20 % R.W. (Relative Wirksamkeit; Chlorpromazin = 1,00) [1, 2]: 1,00; Blutdrucksenkung ED 20 % [1, 4]: 0,0260 mg/kg |
| COc1ccccc1N1CCN(CC(O)COc2cccc3c2CCC3=O)CC1 (racemic) [Beispiel 13, 4-(3-[4-(2-Methoxyphenyl)-1-pipera-zinyl]-2-hydroxy-propoxy)-indanon-1] |  |  | 0.0293 | 0,89 | 376 | 11 | Wirksamkeit nach den blutdrucksenkenden Dosen (ED 20 %) von Chlorpromazin ([1]; relative to Chlorpromazin): 89%; Motilitätshemmung um 50 %: -mal größere Dosen als Referenzsubstanz (weiblichen NMRI-Mäusen): 5 mal |
| O=C1CCc2cccc(OCC(O)CN3CCN(c4ccccc4Cl)CC3)c21 (racemic) [Beispiel 20, 7-(3-[4-(2-Chlorphenyl)-1-piperazinyl]--2-hydroxy-propoxy)-indanon-1] |  |  | 0.0104 | 2,50 | 4077 | 42.4 | Quotienten aus den effektiven Dosen für die Motilitätshemmung (ED 50 %) und Blutdrucksenkung (ED 20 %) [1]: 4 077; stärker wirksam als Chlorpromazin (Blutdrucksenkung ED 20 %) ([1]; relative to Chlorpromazin): 2,5 mal; Motilitätshemmung um 50 %: -mal größere Dosen als Referenzsubstanz (weiblichen NMRI-Mäusen): 20 mal |
